According to US4550166A, “(Pyridinyl)-1,2,4-triazolo[4,3-a]pyridines” (American Cyanamid Company, priority 1984, dated 1985):

How the values were obtained:
[1] = tested on: Brain-specific Receptors of Rats (^3 H-benzodiazepine binding); test: Inhibition of the Binding of ^3 H--Benzodiazepine to Brain-specific Receptors of Rats; design: species or system rats (male albino, Wistar strain); details: 1 μM; whole cortex of rats, P2 fraction; ^3 H-diazepam (1.5 nM) or ^3 H-flunitrazepam (1.0 nM)
[2] = tested on: clonic seizures caused by pentylenetetrazole in rats; test: Protection Against Clonic Siezures Caused by Pentylenetetrazole in Rats; type: in vivo; details: Dose 25 mg/kg, orally or intraperitoneally, pentylenetetrazole 23 mg/kg i.v. at 30 or 60 minutes
Protocol: The antianxiety properties of the novel compounds of the present invention have been established in a test which indicates anxiolytic activity by the measure of protection from convulsions resulting from the administration of pentylenetetrazole. Single or graded dose levels of the test compounds were administered orally or intraperitoneally in a 2% starch vehicle, containing 0.5% v/v polyethylene glycol and one drop of Polysorbate 80 to groups of at least four rats. At 30 or 60 minutes, the rats were treated intravenously with pentylenetetrazole at a dose of 23 mg/kg of body weight. This dose is estimated to cause clonic seizures in 99% of unprotected rats.
It has been reported [R. T. Hill and D. H. Tedeschi, "Animal Testing and Screening Procedures in Evaluating Psychotropic Drugs" in An Introduction to Psychopharmacology, Eds. R. R. Rech and K. E. Moore, Raven Press, New York, pp 237-288 (1971)] that there is a high degree of correlation between antagonism of pentylenetetrazole seizures in rats and antianxiety effects in higher warm-blooded animals.

[3] = tested on: conflict situation in rats; test: Non-Conditioned Passive Avoidance Test in Rats; type: in vivo, Wistar strain rats; design: key: Active: considered active if the number of shocks received by the test group is significantly higher than the control group by the Mann-Witney U test; details: Dose 25 mg/kg, oral or intraperitoneal, 30 or 60 minutes
Protocol: Another test which has been used to assess anti-anxiety effects is a non-conditioned passive avoidance procedure described by J. R. Vogel, B. Beer and D. E. Clody, "A Simple and Reliable Conflict Procedure for Testing Antianxiety Agents", Psychopharmacologia, 21, 1-7 (1971). A conflict situation was induced in rats by a modification of this method.
Groups of 6 naive, Wistar strain rats, weighing 200-240 g each, were deprived of water for 48 hours and food for 24 hours. The test compounds were administered in single or graded, oral or intraperitoneal doses, suspended in a 2% starch vehicle containing 0.5% v/v polyethylene glycol and one drop of Polysorbate 80. Control animals received the vehicle alone. At 30 or 60 minutes each rat was placed in an individual plexiglass chamber. Water was available ad libitum from a tap located in the rear of the chamber. A 0.7 milliampere DC shocking current was established between the stainless steel grid floor and the tap. After 20 licks of non-shocked drinking, a shock was delivered for 2 seconds and then further shocks were delivered on a ratio of one shock for 2 seconds for every 20 licks. This was continued for a total of 3 minutes. The number of shocks taken by each rat during the 3 minute interval was recorded and compared to a control group.

SMILES | % Inhibition [1] [%] | % of Rats Protected [2] [%] | Result [3]
Cc1nnc2ccc(-c3cccnc3)cn12 [3-Methyl-6-(3-pyridinyl)-1,2,4-triazolo[4,3-a]pyridine] | 20 | 75 | –
Cc1nnc2cc(-c3ccccn3)ccn12 [3-Methyl-7-(2-pyridinyl)-1,2,4-triazolo[4,3-a]pyridine] | 27 | – | –
Cc1nnc2cc(-c3ccncc3)ccn12 [3-Methyl-7-(4-pyridinyl)-1,2,4-triazolo[4,3-a]pyridine] | 24 | – | –
Cc1nnc2c(-c3ccccn3)cccn12 [3-Methyl-8-(2-pyridinyl)-1,2,4-triazolo[4,3-a]pyridine] | 22 | – | Active
Cc1nnc2c(-c3cccnc3)cccn12 [3-Methyl-8-(3-pyridinyl)-1,2,4-triazolo[4,3-a]pyridine] | 24 | – | Active
c1ccc(-c2cccc3nncn23)nc1 [5-(2-Pyridinyl)-1,2,4-triazolo[4,3-a]pyridine] | 26 | – | –
c1cncc(-c2ccc3nncn3c2)c1 [6-(3-Pyridinyl)-1,2,4-triazolo[4,3-a]pyridine] | 13 | 33 | –
c1ccc(-c2ccn3cnnc3c2)nc1 [7-(2-Pyridinyl)-1,2,4-triazolo[4,3-a]pyridine] | 15 | 25 | –
c1ccc(-c2cccn3cnnc23)nc1 [8-(2-Pyridinyl)-1,2,4-triazolo[4,3-a]pyridine] | 26 | – | –
c1cncc(-c2cccn3cnnc23)c1 [8-(3-Pyridinyl)-1,2,4-triazolo[4,3-a]pyridine] | 18 | – | –
